Experimental data taken from article PMC5681660, “Reduced hepatitis B and D viral entry using clinically applied drugs as novel inhibitors of the bile acid transporter NTCP” (Scientific Reports, 2017).
Counter-ions that a name gives are not always drawn. Like-named read-outs stand apart in the source and are kept apart here.

Experiments:
[1] = molecular target: T1, human NTCP (Homo sapiens, UniProt Q14973); test: Screening fluorescent competitive Myrcludex B-FITC binding assay (96-well, 10 µM drug)
T1 sequence (Q14973 1-349): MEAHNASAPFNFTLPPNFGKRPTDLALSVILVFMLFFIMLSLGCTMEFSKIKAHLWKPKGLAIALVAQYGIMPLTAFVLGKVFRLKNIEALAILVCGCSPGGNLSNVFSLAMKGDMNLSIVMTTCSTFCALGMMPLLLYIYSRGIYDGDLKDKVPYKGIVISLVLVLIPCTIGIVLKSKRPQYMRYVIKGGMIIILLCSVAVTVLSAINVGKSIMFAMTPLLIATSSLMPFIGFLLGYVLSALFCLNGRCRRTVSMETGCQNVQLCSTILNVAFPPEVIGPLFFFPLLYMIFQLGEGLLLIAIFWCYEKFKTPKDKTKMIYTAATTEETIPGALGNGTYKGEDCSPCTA

[2] = molecular target: T1, human NTCP; test: Screening taurocholate uptake assay (96-well, [14C]taurocholate, 10 µM drug)
[3] = Prestwick library screen, Myrcludex B-FITC binding, 10 µM drug
[4] = Prestwick library screen, taurocholate uptake, 10 µM drug
[5] = ranking score beside the functional and binding assay B-scores of the screen
[6] = Prestwick library screen, 10 µM drug, B-score of Myrcludex B-FITC binding
[7] = Prestwick library screen, 10 µM drug, B-score of taurocholate uptake
[8] = combined ranking from functional and binding assay B-scores
[9] = screen, 10 µM drug, Myrcludex B-FITC binding
[10] = combined ranking from functional and binding screening assays
[11] = screen, 10 µM drug, taurocholate uptake

Structure (SMILES): O=C1c2c(O)ccc(O)c2C(=O)c2c(NCCNCCO)ccc(NCCNCCO)c21 [Mitoxantrone dihydrochloride]
- B-score binding assay [1, 3]: -0.161
- B-score functional assay [2, 4]: 4.449
- Ranking score [2, 5]: 807.326

Structure (SMILES): C[N+]1(C)CCC(OC(=O)C(O)(c2ccccc2)C2CCCC2)C1 (stereo not drawn) [Glycopyrrolate]
- B-score binding assay [1, 3]: 0.143
- B-score functional assay [2, 4]: 0.403
- Ranking score [2, 5]: 820.625

Structure (SMILES): Nc1nnc(-c2cccc(Cl)c2Cl)c(N)n1 [Lamotrigine]
- B-score binding assay [1, 3]: 0.084
- B-score functional assay [2, 4]: 0.153
- Ranking score [2, 5]: 756.135

Structure (SMILES): Cl.c1cnc(N2CCN(Cc3ccc4c(c3)OCO4)CC2)nc1 [Piribedil hydrochloride]
- B-score binding assay [1, 6]: 0.754
- B-score functional assay [2, 7]: 0.676
- Ranking score [2, 8]: 974.49

Structure (SMILES): COc1ccc2cc(CCC(C)=O)ccc2c1 [Nabumetone]
- B-score binding assay [1, 9]: -1.377
- Ranking score [2, 10]: 286.691
- B-score functional assay [2, 11]: -0.236

Structure (SMILES): CCN(CC)CCOCCOC(=O)C1(c2ccccc2)CCCC1 [Carbetapentane citrate]
- B-score binding assay [1, 6]: 1.7
- B-score functional assay [2, 7]: 0.114
- Ranking score [2, 8]: 943.43

Structure (SMILES): NCC(CC(=O)O)c1ccc(Cl)cc1 (racemic) [Baclofen (R,S)]
- B-score binding assay [1, 6]: 0.531
- B-score functional assay [2, 7]: 2.955
- Ranking score [2, 8]: 1069.07

Structure (SMILES): CCCC(C)C1(CC)C(=O)NC(=O)NC1=O (stereo not drawn) [Pentobarbital]
- B-score binding assay [1]: 1.244
- B-score functional assay [2]: -0.299
- Ranking score [2]: 697.378

Structure (SMILES): O=C(O)c1cc(=O)c2c(OCC(O)COc3cccc4oc(C(=O)O)cc(=O)c34)cccc2o1 [Cromolyn disodium salt]
- B-score binding assay [1, 6]: 0.29
- B-score functional assay [2, 7]: 0.688
- Ranking score [2, 8]: 903.754

Structure (SMILES): Cc1cc(NC(=O)C2=C(O)c3ccccc3S(=O)(=O)N2C)no1 [Isoxicam]
- B-score binding assay [1, 6]: 0.145
- B-score functional assay [2, 7]: 1.391
- Ranking score [2, 8]: 933.01

Structure (SMILES): COc1ccccc1N1CCN(CCCCNC(=O)c2ccc3ccccc3c2)CC1.Cl.Cl [DO 897/99]
- B-score binding assay [1, 9]: -0.125
- Ranking score [2, 10]: 447.929
- B-score functional assay [2, 11]: -0.485

Structure (SMILES): C[C@]12CC[C@H](O)C[C@H]1CC[C@@H]1[C@@H]2C[C@@H](O)[C@]2(C)[C@@H](C3=CC(=O)OC3)CC[C@]12O [Digoxigenin]
- B-score binding assay [1, 9]: -1.199
- Ranking score [2, 10]: 283.718
- B-score functional assay [2, 11]: -0.468

Structure (SMILES): Cc1c(N)c(=O)n(-c2ccccc2)n1C [Ampyrone]
- B-score binding assay [1]: 0.217
- B-score functional assay [2]: 0.135
- Ranking score [2]: 788.348

Structure (SMILES): CC(=O)OCC1=C(C(=O)O)N2C(=O)[C@@H](NC(=O)Cc3cccs3)[C@H]2SC1 [Cephalothin sodium salt]
- B-score binding assay [1, 9]: 0.561
- Ranking score [2, 10]: 427.172
- B-score functional assay [2, 11]: -1.381

Structure (SMILES): C[C@]12CCC(=O)C=C1CC[C@@H]1[C@@H]2C(=O)C[C@@]2(C)[C@H]1CC[C@]2(O)C(=O)CO [Cortisone]
- B-score binding assay [1, 9]: -0.62
- Ranking score [2, 10]: 405.336
- B-score functional assay [2, 11]: -0.212

Structure (SMILES): Cc1c(OCC(F)(F)F)ccnc1C[S+]([O-])c1nc2ccccc2[nH]1 (stereo not drawn) [Lansoprazole]
- B-score binding assay [1, 6]: 0.157
- B-score functional assay [2, 7]: 1.884
- Ranking score [2, 8]: 961.173

Structure (SMILES): NC[C@@H]1O[C@H](O[C@H]2[C@@H](O)[C@H](O[C@@H]3[C@@H](O)[C@H](N)C[C@H](N)[C@H]3O[C@H]3O[C@H](CN)[C@@H](O)[C@H](O)[C@H]3N)O[C@@H]2CO)[C@H](N)[C@@H](O)[C@@H]1O.O=S(=O)(O)O [Neomycin sulfate]
- B-score binding assay [1, 6]: 0.524
- B-score functional assay [2, 7]: 0.497
- Ranking score [2, 8]: 912.995

Structure (SMILES): CC(=O)N(CC(O)CO)c1c(I)c(C(=O)NCC(O)CO)c(I)c(C(=O)NCC(O)CO)c1I (stereo not drawn) [Iohexol]
- B-score binding assay [1, 3]: 0.046
- B-score functional assay [2, 4]: 0.198
- Ranking score [2, 5]: 748.519

Structure (SMILES): Clc1ccc(C(c2ccccc2Cl)C(Cl)Cl)cc1 (stereo not drawn) [Mitotane]
- B-score binding assay [1, 9]: 2.009
- Ranking score [2, 10]: 352.681
- B-score functional assay [2, 11]: -2.371

Structure (SMILES): CCCCOc1cc(C(=O)OCCN(CC)CC)ccc1N [Benoxinate hydrochloride]
- B-score binding assay [1, 9]: -1.11
- Ranking score [2, 10]: 454.623
- B-score functional assay [2, 11]: 0.537

Structure (SMILES): Cl.N=C(N=C(N)N)N1CCOCC1 [Moroxidine hydrochloride]
- B-score binding assay [1, 6]: 1.496
- B-score functional assay [2, 7]: 1.373
- Ranking score [2, 8]: 1132.99

Structure (SMILES): COc1ccccc1O [Guaiacol]
- B-score binding assay [1, 3]: 0.94
- B-score functional assay [2, 4]: -0.032
- Ranking score [2, 5]: 782.911

Structure (SMILES): CCCOc1ccc(C(=O)OCCN(CC)CC)cc1N [Proparacaine hydrochloride]
- B-score binding assay [1, 6]: 1.832
- B-score functional assay [2, 7]: 0.236
- Ranking score [2, 8]: 984.211

Structure (SMILES): Cc1nc2n(c(=O)c1CCN1CCC(c3noc4cc(F)ccc34)CC1)CCCC2 [Risperidone]
- B-score binding assay [1, 6]: 1.724
- B-score functional assay [2, 7]: 0.025
- Ranking score [2, 8]: 888.472

Structure (SMILES): CC(=O)N1CCN(c2ccc(OCC3COC(Cn4ccnc4)(c4ccc(Cl)cc4Cl)O3)cc2)CC1 (stereo not drawn) [Ketoconazole]
- B-score binding assay [1, 9]: -1.382
- Ranking score [2, 10]: 349.5
- B-score functional assay [2, 11]: 0.044

Structure (SMILES): CC1(C)O[C@@H]2C[C@H]3[C@@H]4C[C@H](F)C5=CC(=O)C=C[C@]5(C)[C@@]4(F)[C@@H](O)C[C@]3(C)[C@]2(C(=O)CO)O1 [Fluocinolone acetonide]
- B-score binding assay [1, 3]: -0.033
- B-score functional assay [2, 4]: 0.621
- Ranking score [2, 5]: 752.533

Structure (SMILES): CCOc1ccc(Cc2nccc3cc(OCC)c(OCC)cc23)cc1OCC [Ethaverine hydrochloride]
- B-score binding assay [1, 6]: 1.651
- B-score functional assay [2, 7]: 0.024
- Ranking score [2, 8]: 885.91

Structure (SMILES): CC/C(=C(\c1ccccc1)c1ccc(OCCN(C)C)cc1)c1ccccc1 [Tamoxifen citrate]
- B-score binding assay [1, 3]: 0.04
- B-score functional assay [2, 4]: 0.142
- Ranking score [2, 5]: 732.268

Structure (SMILES): CC(C)(Sc1cc(C(C)(C)C)c(O)c(C(C)(C)C)c1)Sc1cc(C(C)(C)C)c(O)c(C(C)(C)C)c1 [Probucol]
- B-score binding assay [1, 6]: 3.305
- B-score functional assay [2, 7]: 0.089
- Ranking score [2, 8]: 969.367

Structure (SMILES): NS(=O)(=O)c1cc2c(cc1Cl)N=C(CSCc1ccccc1)NS2(=O)=O [Benzthiazide]
- B-score binding assay [1, 3]: 0.39
- B-score functional assay [2, 4]: -0.047
- Ranking score [2, 5]: 714.84

Structure (SMILES): COc1c2occc2c(OC)c2c(=O)cc(C)oc12 [Khellin]
- B-score binding assay [1, 9]: -0.883
- Ranking score [2, 10]: 450.763
- B-score functional assay [2, 11]: 0.111

Structure (SMILES): Cc1nc2ccccn2c(=O)c1CCN1CCC(C(=O)c2ccc(F)cc2)CC1 [Pirenperone]
- B-score binding assay [1, 3]: 3.342
- B-score functional assay [2, 4]: -0.092
- Ranking score [2, 5]: 829.554

Structure (SMILES): O=C1CN2Cc3c(ccc(Cl)c3Cl)N=C2N1 [Anagrelide]
- B-score binding assay [1, 6]: 0.622
- B-score functional assay [2, 7]: 0.197
- Ranking score [2, 8]: 871.654

Structure (SMILES): COc1ccc(C(=O)NCc2cccnc2)cc1C(=O)NCc1cccnc1.O [Picotamide monohydrate]
- B-score binding assay [1, 3]: 0.672
- B-score functional assay [2, 4]: -0.041
- Ranking score [2, 5]: 752.987

Structure (SMILES): Cc1cc2cc3c(C)cc(=O)oc3c(C)c2o1 [Trioxsalen]
- B-score binding assay [1, 6]: 1.537
- B-score functional assay [2, 7]: 0.56
- Ranking score [2, 8]: 1035.49

Structure (SMILES): COc1ccc2c(c1)C(=O)N(CCc1ccc(S(=O)(=O)NC(=O)NC3CCCCC3)cc1)C(=O)C2(C)C [Gliquidone]
- B-score binding assay [1, 9]: 1.024
- Ranking score [2, 10]: 336.107
- B-score functional assay [2, 11]: -2.316

Structure (SMILES): CN1[C@@H]2CC[C@H]1C[C@@H](OC1c3ccccc3CCc3ccccc31)C2.O=C(O)CC(O)(CC(=O)O)C(=O)O [Deptropine citrate]
- B-score binding assay [1, 6]: 0.633
- B-score functional assay [2, 7]: 0.947
- Ranking score [2, 8]: 1000.12
